Active and inactive are the calls of the source.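 Rule for the calls: active = mean IC50 for reducing PEG3 promoter reporter signal at or below a set limit, with IC50 above the limit in both counter screens; inactive = the rest, including counter screen hits.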

We go through 17 compounds from PubChem BioAssay AID624167 (Sanford-Burnham Center for Chemical Genomics, 2012).

Common to all, as to assay: Peg3 promoter luciferase inhibitors, potency, dose response, cell-based, HeLa, CREF/GAPDH counter-screen panel (AID 624167)
Assay [1] relates to PEG-3. The conditions noted are these: HeLa PEG-Prom luciferase reporter, overnight, CREF/GAPDH counter-screens.
Assay [2] relates to Rat fibroblasts (CREF). The conditions noted are these: CREF/GAPDH counter-screens.
Assay [3] deals with PEG-3 (UniProt Q6IN02). The conditions noted are these: HeLa PEG-Prom luciferase reporter, overnight, CREF/GAPDH counter-screens, mean of runs.
Sequence of PEG-3 (UniProt Q6IN02) (Q6IN02 whole entry, looked up): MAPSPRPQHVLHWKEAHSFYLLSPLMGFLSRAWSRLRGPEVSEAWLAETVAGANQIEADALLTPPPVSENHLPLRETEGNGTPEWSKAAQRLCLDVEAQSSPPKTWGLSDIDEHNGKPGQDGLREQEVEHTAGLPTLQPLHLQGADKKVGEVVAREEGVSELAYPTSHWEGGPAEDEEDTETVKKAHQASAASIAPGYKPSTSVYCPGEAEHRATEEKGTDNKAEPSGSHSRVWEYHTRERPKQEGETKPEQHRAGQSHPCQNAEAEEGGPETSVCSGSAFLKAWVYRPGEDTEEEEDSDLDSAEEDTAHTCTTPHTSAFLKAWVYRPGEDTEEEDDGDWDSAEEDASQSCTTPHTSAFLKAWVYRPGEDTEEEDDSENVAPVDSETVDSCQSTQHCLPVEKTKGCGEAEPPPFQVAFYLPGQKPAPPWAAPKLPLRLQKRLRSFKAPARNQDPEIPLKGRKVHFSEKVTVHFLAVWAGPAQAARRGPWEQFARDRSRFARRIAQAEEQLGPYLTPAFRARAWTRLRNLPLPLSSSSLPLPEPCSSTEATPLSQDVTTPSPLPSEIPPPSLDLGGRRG
The mark [4] stands for this setting: run 1, dose range 1, individual replicate IC50 per panel.
The mark [5] stands for this setting: run 2, dose range 1, individual replicate IC50 per panel.

On to `O=C(NC(=O)c1ccccc1)Nc1ccccn1`, for which the IC50 is 1.25 µM in assay [1] (setting [4]); 1.88 µM in assay [1] (setting [5]); 0.751 µM in assay [2] (mean of runs); 0.676 µM in assay [2] (setting [4]); 0.825 µM in assay [2] (setting [5]); 1.57 µM in assay [3].

Consider `CN(C)c1ccc(NC(=S)c2ccccn2)cc1`, for which the IC50 in assay [1] (setting [4]) was 2.19 µM; in assay [1] (setting [5]), 2.97 µM; in assay [2] (mean of runs), 1.2 µM; in assay [2] (setting [4]), 1.25 µM; in assay [2] (setting [5]), 1.15 µM; in assay [3] it was 2.58 µM.

For `C(=NN1CCCCCC1)c1ccc2ccccc2n1`, the IC50 in assay [1] (setting [4]) is 3.59 µM; in assay [1] (setting [5]), more than 100 µM; in assay [2] (mean of runs), 2.58 µM; in assay [2] (setting [4]) it was 2.12 µM; in assay [2] (setting [5]) it was 3.04 µM. In addition, the IC50 entry in assay [3] was “inactive”.

With `COc1ccc(-c2nc(-c3ccccn3)no2)cc1`, the IC50 is 0.765 µM in assay [1] (setting [4]); 0.338 µM in assay [1] (setting [5]); 0.529 µM in assay [2] (mean of runs); 0.472 µM in assay [2] (setting [4]); 0.586 µM in assay [2] (setting [5]); 0.552 µM in assay [3].

`O=[N+]([O-])c1ccc(-c2ccc(/C=N/Nc3nc(NCc4ccccc4)nc(N4CCOCC4)n3)o2)cc1`: the IC50 was 6.13 µM in assay [1] (setting [4]); 5.18 µM in assay [1] (setting [5]); 8.54 µM in assay [2] (mean of runs); 9.4 µM in assay [2] (setting [4]); 7.68 µM in assay [2] (setting [5]); 5.66 µM in assay [3].

Turning to `CC(C)(C)c1ccc(C(=O)O/N=C(\N)c2ccccn2)cc1`, the IC50 in assay [1] (setting [4]) is 0.367 µM; in assay [1] (setting [5]) it was more than 100 µM; in assay [2] (mean of runs), 9.84 µM; in assay [2] (setting [4]), 9.33 µM; in assay [2] (setting [5]), 10.3 µM. Besides, the IC50 entry in assay [3] is “inactive”.

For `CCCN1C=CC(=C2C(=O)c3ccccc3C2=O)C=C1`, the IC50 in assay [1] (setting [4]) is 0.783 µM; in assay [1] (setting [5]), 0.292 µM; in assay [2] (mean of runs) it was 0.538 µM; in assay [2] (setting [4]), 0.469 µM; in assay [2] (setting [5]) it was 0.606 µM; in assay [3], 0.538 µM.

As to `CCc1ccc(C(=O)Nc2nc3ccccc3[nH]2)cc1`, the IC50 was 2.24 µM in assay [1] (setting [4]); 2.95 µM in assay [1] (setting [5]); 0.476 µM in assay [2] (mean of runs); 0.298 µM in assay [2] (setting [4]); 0.654 µM in assay [2] (setting [5]); 2.59 µM in assay [3].

For `COc1cc(SC)ccc1C(=O)Nc1nc2ccccc2[nH]1`, the IC50 in assay [1] (setting [4]) was 0.377 µM; in assay [1] (setting [5]), more than 100 µM; in assay [2] (mean of runs), 0.296 µM; in assay [2] (setting [4]) it was 0.305 µM; in assay [2] (setting [5]) it was 0.288 µM. The IC50 entry in assay [3] was “inactive”.

On to `COC1=C(Br)C(=O)c2ncccc2C1=O`, for which the IC50 was 8.01 µM in assay [1] (setting [4]); 5.3 µM in assay [1] (setting [5]); 14.2 µM in assay [2] (mean of runs); 8.91 µM in assay [2] (setting [4]); 19.4 µM in assay [2] (setting [5]); 6.65 µM in assay [3].

As to `CCCCCN1C=CC(=C2C(=O)c3ccccc3C2=O)C=C1`, the IC50 was 1.08 µM in assay [1] (setting [4]); 1.4 µM in assay [1] (setting [5]); 0.729 µM in assay [2] (mean of runs); 0.371 µM in assay [2] (setting [4]); 1.09 µM in assay [2] (setting [5]); 1.24 µM in assay [3].

Consider `OCCNc1c2ccccc2nc2ccccc12`, for which the IC50 in assay [1] (setting [4]) was 10.2 µM; in assay [1] (setting [5]), 7.76 µM; in assay [2] (mean of runs), 0.77 µM; in assay [2] (setting [4]) it was more than 80 µM; in assay [2] (setting [5]), 0.77 µM; in assay [3] it was 8.99 µM.

With `COC(=O)c1c(N)sc(C(=O)NCCc2ccccc2)c1C`, the IC50 is 2.22 µM in assay [1] (setting [4]); 2.69 µM in assay [1] (setting [5]); 3.88 µM in assay [2] (mean of runs); 4.38 µM in assay [2] (setting [4]); 3.38 µM in assay [2] (setting [5]); 2.46 µM in assay [3].

As to `COc1ccccc1C(=O)Nc1nc2ccccc2[nH]1`, the IC50 in assay [1] (setting [4]) is 0.707 µM; in assay [1] (setting [5]) it was 0.362 µM; in assay [2] (mean of runs), 0.28 µM; in assay [2] (setting [4]), 0.226 µM; in assay [2] (setting [5]), 0.335 µM; in assay [3] it was 0.535 µM.

In the case of `c1cc2c(cc1C1=NNC(=NC3CC3)SC1)OCCO2`, the IC50 is 0.657 µM in assay [1] (setting [4]); 0.872 µM in assay [1] (setting [5]); 4.72 µM in assay [2] (mean of runs); 1.39 µM in assay [2] (setting [4]); 8.06 µM in assay [2] (setting [5]); 0.764 µM in assay [3].

For the compound `CN(C)c1ccc(/C=C/c2ccc3c4ccccc4ccc3[n+]2-c2ccccc2)cc1`, the IC50 in assay [1] (setting [4]) is 10.5 µM; in assay [1] (setting [5]), 9.52 µM; in assay [2] (mean of runs), 17.8 µM; in assay [2] (setting [4]), 16.9 µM; in assay [2] (setting [5]), 18.7 µM; in assay [3], 10 µM.

Regarding `Oc1c(Br)cc(Br)c2cccnc12`, the IC50 in assay [1] (setting [4]) is 4.4 µM; in assay [1] (setting [5]), 9.05 µM; in assay [2] (mean of runs), 9.01 µM; in assay [2] (setting [4]), 11.8 µM; in assay [2] (setting [5]), 6.27 µM; in assay [3], 6.72 µM.
